According to patent publication US20250186405A1, “Compound For Use In Treating Narcolepsy” (Alkermes, Inc., priority 2023, published 2025):

Tested on: subjects with narcolepsy type-2 (NT2)
Assay: Part 5 POC NT2: treatment-emergent adverse events, single doses, crossover
[1] = Total (any Compound A dose), N = 9

Protocol: Part 5 consisted of a 4-way, 4-period crossover study design in approximately 8 subjects (2 subjects per sequence; minimum of 4 subjects with 1 subject per sequence). Subjects were randomized 1:1:1:1 to 1 of 4 sequences with 4 treatment periods (3 single doses of Compound A and 1 dose of matching placebo), with up to 48 hours of washout between treatments. Treatments were administered under fasted state.
Subjects were randomized to 1 of 4 sequences. […] In each period, subjects were administered a single dose of study drug (either Compound A or placebo) as per the randomization schedule with approximately 240 mL of noncarbonated water following overnight fasting. No food was given for at least 3 hours after dose administration (i.e., fast can be broken after the 3-hour PK time point is collected). Water was allowed ad libitum except for 1 hour before and 1 hour after study drug administration. Safety assessments including AEs, safety ECGs, vital signs, and clinical laboratory tests were conducted, and plasma PK samples were collected. Furthermore, BP and HR were monitored once every hour for 12 hours on the dosing days.
Adverse events (AEs) and serious adverse events (SAEs) were monitored continuously until the completion of the study.
Nine subjects with NT2 were dosed in Part 5 (POC in NT2) in a randomized 4-sequence 4-period cross-over design. Each dose of Compound A or matching placebo was separated by 2 days. A 14-day washout period preceded the treatment period and included discontinuation of narcolepsy medications. All 9 subjects underwent the washout period and received at least one dose of Compound A. All subjects completed all 4-way randomized crossover periods.

`CS(=O)(=O)N[C@H]1CCCN2C(=O)COc3ccccc3C3CCC(CC3)OCC12` (stereo partly drawn) [Compound A, N-[(4S,4aR,7α,10α)-1,2,3,4,4a,5,7,8,9,10,16,17-dodecahydro-17-oxo-7,10-ethanopyrido[1,2-d][1,7,4]benzodioxaazacyclotridecin-4-yl]methanesulfonamide] was tested, and the “Any SAEs” value (25 mg single dose, N = 9) was 0 n (%), the “Any TEAE” value (25 mg single dose, N = 9) was 7 (77.8) n (%) and the Death (25 mg single dose, N = 9) was 0 n (%). For the same compound, the “Drug Related TEAE by Preferred Term: Altered state of consciousness” value (25 mg single dose, N = 9) was 0 n (%), the “Drug Related TEAE by Preferred Term: Dizziness” value (25 mg single dose, N = 9) was 2 (22.2) n (%) and the “Drug Related TEAE by Preferred Term: Dizziness postural” value (25 mg single dose, N = 9) was 1 (11.1) n (%). For the same compound, the “Drug Related TEAE by Preferred Term: Feeling jittery” value (25 mg single dose, N = 9) was 1 (11.1) n (%), the “Drug Related TEAE by Preferred Term: Headache” value (25 mg single dose, N = 9) was 1 (11.1) n (%) and the “Drug Related TEAE by Preferred Term: Initial insomnia” value (25 mg single dose, N = 9) was 0 n (%). For the same compound, the “Drug Related TEAE by Preferred Term: Insomnia” value (25 mg single dose, N = 9) was 2 (22.2) n (%), the “Drug Related TEAE by Preferred Term: Photophobia” value (25 mg single dose, N = 9) was 1 (11.1) n (%) and the “Drug Related TEAE by Preferred Term: Pollakiuria” value (25 mg single dose, N = 9) was 3 (33.3) n (%). The “Drug Related TEAE by Preferred Term: Tachycardia” value (25 mg single dose, N = 9) was 0 n (%), the “Drug Related TEAE by Preferred Term: Urinary incontinence” value (25 mg single dose, N = 9) was 1 (11.1) n (%) and the “Subjects with at least one TEAE” value (25 mg single dose, N = 9) was 7 (77.8) n (%). The “Subjects with at least one treatment-related TEAE” value (25 mg single dose, N = 9) was 6 (66.7) n (%), the “TEAE by Highest Relationship: Not Related” value (25 mg single dose, N = 9) was 1 (11.1) n (%) and the “TEAE by Highest Relationship: Related” value (25 mg single dose, N = 9) was 6 (66.7) n (%). The “TEAE by Highest Severity: Mild” value (25 mg single dose, N = 9) was 6 (66.7) n (%), the “TEAE by Highest Severity: Moderate” value (25 mg single dose, N = 9) was 1 (11.1) n (%) and the “TEAE by Highest Severity: Severe” value (25 mg single dose, N = 9) was 0 n (%). The “TEAE by Preferred Term: Altered state of consciousness” value (25 mg single dose, N = 9) was 0 n (%), the “TEAE by Preferred Term: Constipation” value (25 mg single dose, N = 9) was 0 n (%) and the “TEAE by Preferred Term: Contusion” value (25 mg single dose, N = 9) was 1 (11.1) n (%). For the same compound, the “TEAE by Preferred Term: Dizziness” value (25 mg single dose, N = 9) was 2 (22.2) n (%), the “TEAE by Preferred Term: Dizziness postural” value (25 mg single dose, N = 9) was 1 (11.1) n (%) and the “TEAE by Preferred Term: Dry skin” value (25 mg single dose, N = 9) was 0 n (%). For the same compound, the “TEAE by Preferred Term: Feeling jittery” value (25 mg single dose, N = 9) was 1 (11.1) n (%), the “TEAE by Preferred Term: Headache” value (25 mg single dose, N = 9) was 1 (11.1) n (%) and the “TEAE by Preferred Term: Initial insomnia” value (25 mg single dose, N = 9) was 0 n (%). The “TEAE by Preferred Term: Insomnia” value (25 mg single dose, N = 9) was 2 (22.2) n (%), the “TEAE by Preferred Term: Nasal dryness” value (25 mg single dose, N = 9) was 1 (11.1) n (%) and the “TEAE by Preferred Term: Nausea” value (25 mg single dose, N = 9) was 0 n (%). The “TEAE by Preferred Term: Photophobia” value (25 mg single dose, N = 9) was 1 (11.1) n (%), the “TEAE by Preferred Term: Pollakiuria” value (25 mg single dose, N = 9) was 3 (33.3) n (%) and the “TEAE by Preferred Term: Rash” value (25 mg single dose, N = 9) was 0 n (%). For the same compound, the “TEAE by Preferred Term: Skin lesion” value (25 mg single dose, N = 9) was 0 n (%), the “TEAE by Preferred Term: Tachycardia” value (25 mg single dose, N = 9) was 0 n (%) and the “TEAE by Preferred Term: Urinary incontinence” value (25 mg single dose, N = 9) was 1 (11.1) n (%). For the same compound, the Tolerability (NT2, 5, 12 and 25 mg) was “well tolerated”, the “Subjects with at least one TEAE” value (NT2, N = 9, all periods) was 77.8% and the “AE Leading to Study Drug Discontinuation” value [1] was 0 n (%). The “Any SAEs” value [1] was 0 n (%), the “Any TEAE” value [1] was 7 (77.8) n (%) and the Death [1] was 0 n (%). The “Drug Related TEAE by Preferred Term: Altered state of consciousness” value [1] was 0 n (%), the “Drug Related TEAE by Preferred Term: Dizziness” value [1] was 2 (22.2) n (%) and the “Drug Related TEAE by Preferred Term: Dizziness postural” value [1] was 1 (11.1) n (%). For the same compound, the “Drug Related TEAE by Preferred Term: Feeling jittery” value [1] was 1 (11.1) n (%), the “Drug Related TEAE by Preferred Term: Headache” value [1] was 1 (11.1) n (%) and the “Drug Related TEAE by Preferred Term: Initial insomnia” value [1] was 1 (11.1) n (%). For the same compound, the “Drug Related TEAE by Preferred Term: Insomnia” value [1] was 2 (22.2) n (%), the “Drug Related TEAE by Preferred Term: Photophobia” value [1] was 1 (11.1) n (%) and the “Drug Related TEAE by Preferred Term: Pollakiuria” value [1] was 3 (33.3) n (%). The “Drug Related TEAE by Preferred Term: Tachycardia” value [1] was 0 n (%), the “Drug Related TEAE by Preferred Term: Urinary incontinence” value [1] was 1 (11.1) n (%) and the “Subjects with at least one TEAE” value [1] was 7 (77.8) n (%). For the same compound, the “Subjects with at least one treatment-related TEAE” value [1] was 6 (66.7) n (%), the “TEAE by Highest Relationship: Not Related” value [1] was 1 (11.1) n (%) and the “TEAE by Highest Relationship: Related” value [1] was 6 (66.7) n (%). The “TEAE by Highest Severity: Mild” value [1] was 6 (66.7) n (%), the “TEAE by Highest Severity: Moderate” value [1] was 1 (11.1) n (%) and the “TEAE by Highest Severity: Severe” value [1] was 0 n (%). The “TEAE by Preferred Term: Altered state of consciousness” value [1] was 0 n (%), the “TEAE by Preferred Term: Constipation” value [1] was 1 (11.1) n (%) and the “TEAE by Preferred Term: Contusion” value [1] was 1 (11.1) n (%). For the same compound, the “TEAE by Preferred Term: Dizziness” value [1] was 2 (22.2) n (%), the “TEAE by Preferred Term: Dizziness postural” value [1] was 1 (11.1) n (%) and the “TEAE by Preferred Term: Dry skin” value [1] was 1 (11.1) n (%). For the same compound, the “TEAE by Preferred Term: Feeling jittery” value [1] was 1 (11.1) n (%), the “TEAE by Preferred Term: Headache” value [1] was 1 (11.1) n (%) and the “TEAE by Preferred Term: Initial insomnia” value [1] was 1 (11.1) n (%). For the same compound, the “TEAE by Preferred Term: Insomnia” value [1] was 2 (22.2) n (%), the “TEAE by Preferred Term: Nasal dryness” value [1] was 1 (11.1) n (%) and the “TEAE by Preferred Term: Nausea” value [1] was 1 (11.1) n (%). The “TEAE by Preferred Term: Photophobia” value [1] was 1 (11.1) n (%), the “TEAE by Preferred Term: Pollakiuria” value [1] was 3 (33.3) n (%) and the “TEAE by Preferred Term: Rash” value [1] was 1 (11.1) n (%). The “TEAE by Preferred Term: Skin lesion” value [1] was 1 (11.1) n (%), the “TEAE by Preferred Term: Tachycardia” value [1] was 0 n (%) and the “TEAE by Preferred Term: Urinary incontinence” value [1] was 1 (11.1) n (%).
